In patent US12662469B2 (SIRONAX LTD, priority 2018, dated 2026) one finds EC50 data, which are given here for 35 compounds.

Read-outs that look alike come from different tables or passages of the source.

The assay concerns Cell Necrosis. The experiment in a line: Cell necrosis assay / cell viability assay (necrosis inhibitor activity). It is filed as cell-based. To be noted: necrosis inhibitor activity, read-out: EC50.
Setting [1] is: EC data for 14-191 extrapolated.

The EC50 is the midpoint of the concentration-response curve. Turning to `N#Cc1cc(F)cc([C@@H]2CC=NN2C(=O)N2CC(=Cc3cc4[nH]nc(F)c4cc3F)C2)c1` [Compound 297, (S)-3-(1-(3-((3,5-difluoro-1H-indazol-6-yl)methylene)azetidine-1-carbonyl)-4,5-dihydro-1H-pyrazol-5-yl)-5-fluorobenzonitrile], the EC50 (compounds outside 14-191) lay in the range of 1 to 1000 nM.

As to `O=C(N1CC(Nc2ncc(F)cc2F)C1)N1N=CC[C@H]1c1cc(F)cc(F)c1` [Compound 254, (S)-(5-(3,5-difluorophenyl)-4,5-dihydro-1H-pyrazol-1-yl)(3-((3,5-difluoropyridin-2-yl)amino)azetidin-1-yl)methanone], where the note is “compounds outside 14-191”, the EC50 was in the range of 1 to 1000 nM.

As to `CC1Oc2cc(F)c(OC3CN(C(=O)N4N=CC[C@H]4c4cc(F)cc(F)c4)C3)cc2NC1=O` (stereo partly drawn) [Compound 350, 6-((1-((S)-5-(3,5-difluorophenyl)-4,5-dihydro-1H-pyrazole-1-carbonyl)azetidin-3-yl)oxy)-7-fluoro-2-methyl-2H-benzo[b][1,4]oxazin-3(4H)-one], the EC50 (compounds outside 14-191) was in the range of 1 to 1000 nM.

For the compound `CC(=O)Nc1cccc(OC2CN(C(=O)N3N=CCC3c3cc(F)cc(F)c3)C2)c1` (centres unmarked) [Compound 228, N-(3-((1-(5-(3,5-difluorophenyl)-4,5-dihydro-1H-pyrazole-1-carbonyl)azetidin-3-yl)oxy)phenyl)acetamide], under “compounds outside 14-191”, the EC50 is 1 to 1000 nM.

As to `O=C(N1CC(Oc2cc3[nH]c(=O)ccc3cc2F)C1)N1N=CC[C@H]1c1cc(F)cc(F)c1` [Compound 253, (S)-7-((1-(5-(3,5-difluorophenyl)-4,5-dihydro-1H-pyrazole-1-carbonyl)140zetidine-3-yl)oxy)-6-fluoroquinolin-2(1H)-one], the EC50 (compounds outside 14-191) was in the range of 1 to 1000 nM.

With `O=C(N1CC(=Cc2cc3[nH]nc(F)c3cc2F)C1)N1N=CC[C@H]1c1cc(F)cc(F)c1` [Compound 301, (S)-(3-((3,5-difluoro-1H-indazol-6-yl)methylene)azetidin-1-yl)(5-(3,5-difluorophenyl)-4,5-dihydro-1H-pyrazol-1-yl)methanone], the 50% effective concentration (EC50) (compounds outside 14-191) is 1 to 1000 nM.

Regarding `CNC(=O)c1ccc(OC2CN(C(=O)N3N=CCC3c3cc(F)cc(F)c3)C2)cc1` (centres unmarked) [Compound 165], under setting [1], the EC50 is 1 to 1000 nM.

Regarding `O=C1CCc2ccc(OC3CN(C(=O)N4N=CC[C@H]4c4cc(F)cc(F)c4)C3)cc2N1` [Compound 206, (S)-7-((1-(5-(3,5-difluorophenyl)-4,5-dihydro-1H-pyrazole-1-carbonyl)azetidin-3-yl)oxy)-3,4-dihydroquinolin-2(1H)-one], the EC50 (compounds outside 14-191) was 1 to 1000 nM.

Consider `O=C(N1CC(Oc2ccc3ncc(=O)[nH]c3n2)C1)N1N=CC[C@H]1c1cc(F)cc(F)c1` [Compound 256, (S)-6-((1-(5-(3,5-difluorophenyl)-4,5-dihydro-1H-pyrazole-1-carbonyl)azetidin-3-yl)oxy)pyrido[2,3-b]pyrazin-3(4H)-one], for which the EC50 (compounds outside 14-191) lay within 1 to 1000 nM.

Take `N#Cc1cc(O[C@@H]2CCN(C(=O)N3N=CC[C@H]3c3cc(F)cc(F)c3)C2)ccn1` [Compound 340, 4-(((R)-1-((S)-5-(3,5-difluorophenyl)-4,5-dihydro-1H-pyrazole-1-carbonyl)pyrrolidin-3-yl)oxy)picolinonitrile]: the EC50 (compounds outside 14-191) was 1 to 1000 nM.

As for `C[C@H]1CN(c2ncc(F)cn2)CCN1C(=O)N1N=CCC1c1ccccc1` (stereo in doubt) [Compound 111A, (S)-(4-(5-fluoropyrimidin-2-yl)-2-methylpiperazin-1-yl)(5-phenyl-4,5-dihydro-1H-pyrazol-1-yl)methanone], the EC50 under setting [1] was 1 to 1000 nM.

For the compound `N#Cc1cnc2ccc(N3CCN(C(=O)N4N=CC[C@H]4c4cc(F)cc(F)c4)CC3)nn12` [Compound 383, (S)-6-(4-(5-(3,5-difluorophenyl)-4,5-dihydro-1H-pyrazole-1-carbonyl)piperazin-1-yl)imidazo[1,2-b]pyridazine-3-carbonitrile], the EC50 (compounds outside 14-191) fell in the range of 1 to 1000 nM.

On to `N#Cc1cc(F)ccc1C=C1CN(C(=O)N2N=CC[C@H]2c2cc(F)cc(F)c2)C1` [Compound 321, (S)-2-((1-(5-(3,5-difluorophenyl)-4,5-dihydro-1H-pyrazole-1-carbonyl)azetidin-3-ylidene)methyl)-5-fluorobenzonitrile], for which the concentration for a half-maximal effect (EC50) (compounds outside 14-191) lay within 1 to 1000 nM.

Take `CNc1nc(OC2CN(C(=O)N3N=CC[C@H]3c3cc(F)cc(F)c3)C2)c(F)cc1F` [Compound 262, (S)-(3-((3,5-difluoro-6-(methylamino)pyridin-2-yl)oxy)azetidin-1-yl)(5-(3,5-difluorophenyl)-4,5-dihydro-1H-pyrazol-1-yl)methanone]: where the note is “compounds outside 14-191”, the EC50 was in the range of 1 to 1000 nM.

As for `O=C(N1CC(Oc2ccccc2F)C1)N1OCC[C@H]1c1ccccc1` [Compound 77, (S)-(3-(2-fluorophenoxy)azetidin-1-yl)(3-phenylisoxazolidin-2-yl)methanone], the EC50 under setting [1] was 1 to 1000 nM.

`CN1C(=O)C(CCO)Oc2cc(F)c(OC3CN(C(=O)N4N=CC[C@H]4c4cc(F)cc(F)c4)C3)cc21` (stereo partly drawn) [Compound 248, 6-((1-((S)-5-(3,5-difluorophenyl)-4,5-dihydro-1H-pyrazole-1-carbonyl)azetidin-3-yl)oxy)-7-fluoro-2-(2-hydroxyethyl)-4-methyl-2H-benzo[b][1,4]oxazin-3(4H)-one]: the EC50 (compounds outside 14-191) was in the range of 1 to 1000 nM.

For the compound `O=C(N1CC(Cc2ccccc2Cl)C1)N1N=CCC1c1ccccc1` (centres unmarked) [Compound 47, (3-(2-chlorobenzyl)azetidin-1-yl)(5-phenyl-4,5-dihydro-1H-pyrazol-1-yl)methanone], the EC50 under setting [1] is 1 to 1000 nM.

For the compound `CNC(=O)c1cccc(OC2CN(C(=O)N3N=CCC3c3cc(F)cc(F)c3)C2)c1Cl` (centres unmarked) [Compound 164], the EC50 under setting [1] is 1 to 1000 nM.

Turning to `CNC(=O)c1nc(OC2CN(C(=O)N3N=CCC3c3cc(F)cc(F)c3)C2)oc1F` (centres unmarked) [Compound 172], the EC50 under setting [1] is 1 to 1000 nM.

In the case of `O=C(N1CC(=Cc2cc3[nH][nH]c(=O)c3cc2F)C1)N1N=CC[C@H]1c1cc(F)cc(F)c1` [Compound 286, (S)-6-((1-(5-(3,5-difluorophenyl)-4,5-dihydro-1H-pyrazole-1-carbonyl)azetidin-3-ylidene)methyl)-5-fluoro-1H-315-indazol-3-one], the EC50 (compounds outside 14-191) was in the range of 1 to 1000 nM.

Regarding `CNC(=O)c1cc2sc(OC3CN(C(=O)N4N=CC[C@H]4c4cc(F)cc(F)c4)C3)nc2[nH]1` [Compound 258, (S)-2-((1-(5-(3,5-difluorophenyl)-4,5-dihydro-1H-pyrazole-1-carbonyl)azetidin-3-yl)oxy)-N-methyl-4H-pyrrolo[2,3-d]thiazole-5-carboxamide], the EC50 (compounds outside 14-191) was 1 to 1000 nM.

As to `O=C(N1CCN(c2ccc(F)cn2)CC1)N1N=CCC1c1ccccc1` (centres unmarked) [Compound 85, (4-(5-fluoropyridin-2-yl)piperazin-1-yl)(5-phenyl-4,5-dihydro-1H-pyrazol-1-yl)methanone], the EC50 under setting [1] is 1 to 1000 nM.

As to `N#Cc1cccc([C@@H]2CC=NN2C(=O)N2CC(=Cc3cc4c(cc3F)CC(=O)N4)C2)c1` [Compound 373, (S)-3-(1-(3-((5-fluoro-2-oxoindolin-6-yl)methylene)azetidine-1-carbonyl)-4,5-dihydro-1H-pyrazol-5-yl)benzonitrile], the EC50 (compounds outside 14-191) was in the range of 1 to 1000 nM.

In the case of `NC(=O)c1cc(F)c(OC2CN(C(=O)N3N=CC[C@H]3c3cc(F)cc(F)c3)C2)c(F)c1` [Compound 222, (S)-4-((1-(5-(3,5-difluorophenyl)-4,5-dihydro-1H-pyrazole-1-carbonyl)azetidin-3-yl)oxy)-3,5-difluorobenzamide], the EC50 (compounds outside 14-191) was 1 to 1000 nM.

For `N#Cc1ccc(OC2CN(C(=O)N3N=CCC3c3cc(F)cc(F)c3)C2)cc1F` (centres unmarked) [Compound 137, 4-((1-(5-(3,5-difluorophenyl)-4,5-dihydro-1H-pyrazole-1-carbonyl)azetidin-3-yl)oxy)-2-fluorobenzonitrile], the EC50 under setting [1] is 1 to 1000 nM.

As to `O=C(N1CC(Cc2ccc(F)cc2Cl)C1)N1N=CCC1c1ccccc1` (centres unmarked) [Compound 52, (3-(2-chloro-4-fluorobenzyl)azetidin-1-yl)(5-phenyl-4,5-dihydro-1H-pyrazol-1-yl)methanone], the EC50 under setting [1] is 1 to 1000 nM.

Regarding `CNC(=O)c1nc(OC2CN(C(=O)N3N=CC[C@H]3c3cc(F)cc(F)c3)C2)sc1Cl` [Compound 273, (S)-5-chloro-2-((1-(5-(3,5-difluorophenyl)-4,5-dihydro-1H-pyrazole-1-carbonyl)azetidin-3-yl)oxy)-N-methylthiazole-4-carboxamide], under “compounds outside 14-191”, the EC50 was 1 to 1000 nM.

With `O=C(N1CC(=Cc2cnc3cn[nH]c3c2)C1)N1N=CC[C@H]1c1cc(F)cc(F)c1` [Compound 315, (S)-(3-((1H-pyrazolo[4,3-b]pyridin-6-yl)methylene)azetidin-1-yl)(5-(3,5-difluorophenyl)-4,5-dihydro-1H-pyrazol-1-yl)methanone], the EC50 (compounds outside 14-191) was in the range of 1 to 1000 nM.

Consider `NC(=O)c1ccc(OC2CN(C(=O)N3N=CCC3c3cc(F)cc(F)c3)C2)cc1F` (centres unmarked) [Compound 155], for which the EC50 under setting [1] was 1 to 1000 nM.

With `C[C@H]1CN(c2ccc(F)cn2)CCN1C(=O)N1N=CCC1c1ccccc1` (stereo partly drawn) [Compound 115A, ((S)-4-(5-fluoropyridin-2-yl)-2-methylpiperazin-1-yl)(5-phenyl-4,5-dihydro-1H-pyrazol-1-yl)methanone], under setting [1], the EC50 is 1 to 1000 nM.

Regarding `O=C(N1CC(Oc2nc3c(=O)[nH]ccc3s2)C1)N1N=CCC1c1cc(F)cc(F)c1` (centres unmarked) [Compound 174], under setting [1], the EC50 was 1 to 1000 nM.

For `CC(c1ccccc1)C1CN(C(=O)N2N=CCC2c2ccccc2)C1` (centres unmarked) [Compound 124, (5-phenyl-4,5-dihydro-1H-pyrazol-1-yl)(3-(1-phenylethyl)azetidin-1-yl)methanone], under setting [1], the EC50 was 1000 to 10000 nM.

Regarding `N#Cc1nccc(O[C@@H]2CCN(C(=O)N3N=CC[C@H]3c3cc(F)cc(F)c3)C2)n1` [Compound 362, 4-(((R)-1-((S)-5-(3,5-difluorophenyl)-4,5-dihydro-1H-pyrazole-1-carbonyl)pyrrolidin-3-yl)oxy)pyrimidine-2-carbonitrile], the EC50 (compounds outside 14-191) was 1 to 1000 nM.

Regarding `O=C(N1CC(Oc2ccccc2F)C1)N1N=CCC1c1ccccc1` (centres unmarked) [Compound 60, (3-(2-fluorophenoxy)azetidin-1-yl)(5-phenyl-4,5-dihydro-1H-pyrazol-1-yl)methanone], under setting [1], the EC50 was 1 to 1000 nM.

Consider `Nc1ccc(F)c(C=C2CN(C(=O)N3N=CC[C@H]3c3cc(F)cc(F)c3)C2)n1` [Compound 244], for which the EC50 (compounds outside 14-191) was in the range of 1 to 1000 nM.
